The numbers were not newly measured in patent US8420367B2, “Polynucleotides encoding mutant hydrolase proteins with enhanced kinetics and functional expression” (Promega Corporation, priority 2006, dated 2013), which cites them from elsewhere.

The structures appear in SMILES notation.

In the series the target is tetracysteine domain in a recombinant protein.

`O=C1OC2(c3ccccc31)c1ccc(O)c([As]3SCCS3)c1Oc1c2ccc(O)c1[As]1SCCS1` [FLASH, 4′,5′-bis(1,3,2-dithioarsolan-2-yl)fluorescein]: the dissociation constant result is on record as “nanomolar or lower”.
